Measured values from publication PMC9147645, “Food-Derived β-Carboline Alkaloids Ameliorate Lipid Droplet Accumulation in Human Hepatocytes” (Pharmaceuticals, 2022).

Tests used:
HepG2 cells [1] = assay: Lipid droplet accumulation inhibition (LDAI) assay, Oil Red O, oleic acid-loaded cells; assay type: cell-based, human; conditions: HepG2 + 0.25 mM oleic acid, vs untreated control (+OA)
Method: LDAI assay: LDAI activity was determined using an Oil Red O assay with 24-well plates (n = 4 per treatment). Staining of LDs in cultured hepatocytes was performed according to the manufacturer’s instructions, based on the Oil Red O staining assay. Briefly, HepG2 cells (1.5 × 10^4/well) were supplemented with 10% FBS, cultured, seeded in 35-mm dishes, and treated with the tested samples after 24 h. Oil Red O, a fat-soluble dye, is widely used for staining neutral lipids in LDs, as described in the Supplementary Materials. […]
2 1.2. Cytotoxicity assay dropwise under ice-cooling. […]
Lipid droplet accumulation inhibition assay and Real-Ti me LDAI acid tryptophan (9) and compound 12 were subjected to acid conversion at 90 °C accumulation in acetic acid to obtain compound 2 (1H and 13C, see in Supporting Information). Lipid droplet accumulation inhibition (LDAI) activity was determined using an Synthesis of Compound 4. To a stirred soln . compound 3 in MeOH was added oilred assay in a 24-well plate according to the manufacturer ’sinstructions (n = 4 with NaOH (2 mol/L). Compound 4 was obtained after stirringthe mixture at 65℃ per each treatment). Real-time oleic induced-LD inhibition was performed by for 5 h. (1H and 13C, see Figures S10 and S11). We also prepared similar using a Nikkon microscope. Morphological analysis of HepG2 cells after compounds without any substituent at the C-1 position in the C-ring using a one- treatment with control(-OA) and (+OA) or compound at different concentrations pot Pictet–Spengler reaction (6-8). was determined by staining with AO/EB.
Synthetic b-carboline alkaloids (1-8): 1.4. Oil Red O Staining.
CAS Registry Number of all the series of synthetic b-carboline alkaloids (1-8) HepG2 cells were cultured and treated in 35 mm dishes, as described above. were subjected to biological evaluation: 1H-Pyrido[3,4-b]indole-3-carboxylic acid, Oil Red O dye was used for LD staining. Oil Red O was dissolved in isopropanol 1-[5-[(acetyloxy)methyl]-2-furanyl]-2,3,4,9-tetrahydro-, methyl ester, (1S-trans)- as 3 mg/mL and diluted with water so that isopropanol became 60%. Oil Red O (9CI) (1,CAS Registry Number 11 5 1 0 7-75-0;11 5 1 0 7-76-1);2,3,4,9-Tetrahydro-1-solutionwasfilteredbya0.4 μm pore syringe filter.For cellular staining, the […]

HepG2 cells [2] = assay: Accumulated triacylglycerol species by LC-MS/MS in oleic acid-loaded cells; assay type: cell-based, human; conditions: for Number of accumulated triacylglycerol molecular species inhibited: 24 h of treatment; for inhibition at 200 µM: Homo sapiens, HepG2, 24 h
Method: Tested compounds (200 μM) were added to cultured HepG2 cells loaded with oleic acid and incubated at 37 °C for 24 h, as previously described. Centrifuged samples were analyzed using an LC/MS orbitrap. Chromatographic separation was performed using a Shimadzu Prominence UHPLC system with a binary solvent delivery system and a standard auto-sampler. An Atlantis® T3 column (2.1 × 150 mm, 3 μm, Waters) was used for separation, with a flow rate of 200 μL/min. The mobile phase consisted of A: 10 mM ammonium acetate solution; B: isopropanol; and C: methanol. Positive mode: 0–1 min, 6% B and 90% C; 1–10 min, 83% B and 15% C; 10–19 min, 83% B and 15% C; 19–19.5 min, 6% B and 90% C; 19.5–22 min, 6% B and 90% C. The injection volume was 10 μL. The column temperature was maintained at 40 °C. The LC/MS parameters were as previously described.

HepG2 cells [3] = assay: LD fluorescence staining assay (Oil Red O / Hoechst); assay type: cell-based, human; conditions: 200 μM, HepG2 loaded with OA, Oil Red O and Hoechst 33,342
Method: LD fluorescence staining assay: The staining was performed with modifications based on our previous report. HepG2 cells were seeded in 35 mm glass bottom dishes at 4.0 × 10^5/plate. After 24 h of incubation, OA and all samples were processed for 24 h. Oil Red O staining was performed, then the Hoechst reagent solution mixed with PBS was added and incubated in the dark for 25 min. Images were then captured using a BZ-9000 fluorescence microscope (Keyence Co., Ltd., Osaka, Japan).

HepG2 cells [4] = assay: Real-time LDAI monitoring (live imaging); assay type: cell-based, human; conditions: HepG2 in DMEM with oleic acid, within 20 h
Method: Real-time LDAI monitoring: Morphological changes in HepG2 cells and LDs induced by treatment with 4 were monitored using a Nikon, Hamamatsu Photonics/Ti-E, CCD Camera for 20 h. The cell viability of the control cells was examined by staining with acridine orange (AO)/ethidium bromide (EB) dyes at the end of the experiment (20 h) (Supplementary Materials, Figure S12).

[5] = test system: cultured human hepatocytes (C3A); parameters: method as in earlier work; conditions: ref "We have reported"; cited from earlier work
[6] = test system: nuclear factor erythroid 2-related factor 2 (Nrf2); conditions: hepatocytes; ref "We have reported"; cited from earlier work
[7] = 24 h, HepG2 + OA, vs control (+OA), read-out: Inhibition of accumulated TAG 48:4
[8] = 24 h, HepG2 + OA, vs control (+OA), read-out: Inhibition of accumulated TAG 50:3
[9] = 24 h, HepG2 + OA, vs control (+OA), read-out: Inhibition of accumulated TAG 50:5
[10] = 24 h, HepG2 + OA, vs control (+OA), read-out: Inhibition of accumulated TAG 52:4
[11] = 24 h, HepG2 + OA, vs control (+OA), read-out: Inhibition of accumulated TAG 52:5
[12] = 24 h, HepG2 + OA, vs control (+OA), read-out: Inhibition of accumulated TAG 52:6
[13] = 24 h, HepG2 + OA, vs control (+OA), read-out: Inhibition of accumulated TAG 52.7
[14] = 24 h, HepG2 + OA, vs control (+OA), read-out: Inhibition of accumulated TAG 54:7
[15] = 24 h, HepG2 + OA, vs control (+OA), read-out: Inhibition of accumulated TAG 56.9

In the case of `O=C(O)C1Cc2c([nH]c3ccccc23)C(c2ccc(CO)o2)N1` (stereo not shown) [Compound 2, 1,2,3,4-tetrahydro-1-(5-(hydroxymethyl)-2-furanyl)-9H-pyrido [3,4-b]indole-3-carboxylic acid], the inhibition at 100 µM (HepG2 cells [1]; Homo sapiens, HepG2, 24 h, 100 μM) is reported as 25.5%, the inhibition at 200 µM (HepG2 cells [1]; Homo sapiens, HepG2, 24 h) is reported as 29.1% and the inhibition at 400 µM (HepG2 cells [1]; Homo sapiens, HepG2, 24 h) is reported as 74%. The “Number of accumulated triacylglycerol molecular species inhibited” value (HepG2 cells [2]; 200 μM, HepG2 + OA) was “twenty-five”, the inhibition at 200 µM (HepG2 cells [2]; [7]) was 23.4% and the inhibition at 200 µM (HepG2 cells [2]; [8]) was 26.6%. The inhibition at 200 µM (HepG2 cells [2]; [9]) was 33.7%, the inhibition at 200 µM (HepG2 cells [2]; [10]) was 28.1% and the inhibition at 200 µM (HepG2 cells [2]; [11]) was 9.5%. It also gave an inhibition at 200 µM (HepG2 cells [2]; [12]) of 33.4%, an inhibition at 200 µM (HepG2 cells [2]; [13]) of 35.1% and an inhibition at 200 µM (HepG2 cells [2]; [14]) of 30%. The inhibition at 200 µM (HepG2 cells [2]; 24 h, HepG2 + OA, vs control (+OA), read-out: Inhibition of accumulated TAG 56:10) was 45.9%, the inhibition at 200 µM (HepG2 cells [2]; [15]) was 28.3% and the inhibition at 200 µM (HepG2 cells [2]; 24 h, HepG2 + OA, vs control (+OA), read-out: Inhibition of accumulated TAG 58:12) was 50 to 74%. The inhibition at 200 µM (HepG2 cells [2]; 24 h, except TAGs 58:12, 46:3, 54:6, and 56:7, read-out: Inhibition of most of the accumulated triacylglycerol molecular species) was 25 to 49% and the “LDs in fluorescence image” value (HepG2 cells [3]) was “significantly inhibited”.

For `O=C(O)c1cc2c([nH]c3ccccc32)c(-c2ccc(CO)o2)n1` [Compound 4, flazin], the LDAI (HepG2 cells [1]; 100 μM, 24 h) was “ns”, the inhibition at 200 µM (HepG2 cells [1]; Homo sapiens, HepG2, 24 h) was 20% and the inhibition at 400 µM (HepG2 cells [1]; Homo sapiens, HepG2, 24 h) was 77.5%. For the same compound, the “Inhibition of TAGs 52:6; 52:7; 56:10; 56:9; and 62:4 (in words)” value (HepG2 cells [2]; 200 μM, 24 h, HepG2 + OA) was “total inhibition”, the “Number of accumulated triacylglycerol molecular species inhibited” value (HepG2 cells [2]; 200 μM, HepG2 + OA) was “twenty” and the inhibition at 200 µM (HepG2 cells [2]; 24 h, HepG2 + OA, vs control (+OA), read-out: Inhibition of accumulated TAG 46:3) was 28.9%. For the same compound, the inhibition at 200 µM (HepG2 cells [2]; [7]) was 39%, the inhibition at 200 µM (HepG2 cells [2]; [8]) was 49.4% and the inhibition at 200 µM (HepG2 cells [2]; [9]) was 72.5%. The inhibition at 200 µM (HepG2 cells [2]; [10]) was 51.2%, the inhibition at 200 µM (HepG2 cells [2]; [11]) was 49.1% and the inhibition at 200 µM (HepG2 cells [2]; [12]) was 65.7%. The inhibition at 200 µM (HepG2 cells [2]; [13]) was 70.7%, the inhibition at 200 µM (HepG2 cells [2]; 24 h, HepG2 + OA, vs control (+OA), read-out: Inhibition of accumulated TAG 54:6) was 49.4% and the inhibition at 200 µM (HepG2 cells [2]; [14]) was 66.3%. The inhibition at 200 µM (HepG2 cells [2]; 24 h, HepG2 + OA, vs control (+OA), read-out: Inhibition of accumulated TAG 56:7) was 49.1%, the inhibition at 200 µM (HepG2 cells [2]; 24 h, HepG2 + OA, vs control (+OA), read-out: Inhibition of accumulated TAG 56:8) was 58.1% and the inhibition at 200 µM (HepG2 cells [2]; [15]) was 71.4%. The inhibition at 200 µM (HepG2 cells [2]; 24 h, HepG2 + OA, vs control (+OA), read-out: Inhibition of accumulated TAG 58:11) was 65.2%, the inhibition at 200 µM (HepG2 cells [2]; 24 h, HepG2 + OA, vs control (+OA), read-out: Inhibition of accumulated TAG 60:12) was 66.4% and the inhibition at 200 µM (HepG2 cells [2]; 24 h, HepG2 + OA, vs control (+OA), read-out: Inhibition of accumulated TAG 62:14) was 76.4%. For the same compound, the “LDs in fluorescence image” value (HepG2 cells [3]) was “significantly inhibited”, the “Accumulated neutral LDs in real-time imaging” value (HepG2 cells [4]) was “significantly reduced in number” and the Cytotoxicity [5] was “without showing any significant cytotoxicity”. For the same compound, the “Protection from oxidative damage by AAPH” value [5] was “protects” and the Nrf2 activation [6] was “activated”.
